Laboratory results published in ChEMBL document CHEMBL1833824, “Effects of cyclization on stability, structure, and activity of α-conotoxin RgIA at the α9α10 nicotinic acetylcholine receptor and GABA(B) receptor” (J Med Chem, 2011).
Bridge positions count the residues as written; N and C are the ends. Square brackets hold non-standard residues; d marks the D form. Peptide text beside a SMILES is read from it. Hyp = O=C(O)[C@@H]1C[C@@H](O)CN1

How the values were obtained:
[1] = Inhibition of GABA-B receptor-mediated high voltage-activated Ca2+ channel current in Wistar rat DRG neurons by whole-cell patch clamp assay; conditions: DRG neuron
Oocyte = test: Inhibition of human alpha-9/rat alpha-10 nACHR expressed in Xenopus oocytes assessed as inhibition of acetylcholine-induced current by voltage clamp assay relative to RgIA; format: cell-based; conditions: dose or concentration not given here

SMILES: N=C(N)NCCC[C@@H]1NC(=O)[C@H](Cc2ccc(O)cc2)NC(=O)[C@H](CCCNC(=N)N)NC(=O)[C@@H]2CSSC[C@H](NC(=O)CN)C(=O)N[C@@H](CSSC[C@@H](C(=O)O)NC1=O)C(=O)N[C@@H](CO)C(=O)N[C@@H](CC(=O)O)C(=O)N1C[C@H](O)C[C@H]1C(=O)N[C@@H](CCCNC(=N)N)C(=O)N2 (H-GCCSD[Hyp]RCRYRC-OH; disulfide 2-8, 3-12)
- IC50 [1]: 0.0205 µM
- inhibition (Oocyte): 41%
